# US5512561A, “Aryl substituted dibenzoxazepine compounds, pharmaceutical compositions and methods of use” (G. D. Searle & Co., priority 1995, dated 1996)
# Counter-ions that a name gives are not always drawn.
# Experiments:
# [1] = tested on: prostaglandin E2 -induced contractions of segments of guinea pig ileum; test: Prostaglandin (PGE) Antagonism Assay in guinea pig ileum; format: cell-based; conditions: dose ratio of EC50 doses of prostaglandin E2; initial test compound concentration 3 micromolar; 37° C.
# Experimental: In order to determine the effectiveness of several of the compounds of the present invention ("test compounds") as prostaglandin E2 antagonists,a prostaglandin antagonism assay was conducted, as described below, to determine the ability of these compounds to inhibit prostaglandin E2 -induced contractions of segments of guinea pig ileum. […] Male albino guinea pigs weighing 200 to 500 grams were sacrificed by cervical dislocation. The ilea were then quickly removed from the guinea pigs and placed in a modified Tyrode solution, a solution which is known to those skilled in the art, containing one-half of the usual amount of magnesium ions. Segments of ileum about 2 cm long were then cut and mounted in a 10-mL tissue bath containing the modified Tyrode solution. […] Data for a control prostaglandin E2 dose response curve plotting concentration of prostaglandin E2 versus the intensity of contractions, detected isotonically, was then obtained by experimentally adjusting the dose of the prostaglandin E2 being injected into the tissue bath, in a manner known by those of skill in the art. Solutions or suspensions containing an initial concentration (3 micromolar) of a test compound in modified Tyrode solution ("test solutions/suspensions") were then separately substituted for the control bath solution. Each test solution/suspension was then kept in constant contact with the ileum tissue, except for brief periods to drain the bath in preparation for rinsing with fresh test solution/suspension. A second prostaglandin E2 dose response curve was then generated for prostaglandin E2 in the presence of a test compound. A dose ratio of EC50 doses was then calculated from the results of each test in a manner known by those of skill in the art.
# [2] = tested on: mice; test: Writhing Assay (PBQ-induced writhing, analgesia in mice); format: in vivo, mice (Charles River male albino); conditions: Mus musculus, po, 25 min, intragastric, PBQ i.p. 25 minutes later, writhes <= one-half the median of saline control; for responders at 30 mg/kg: 30 mg per kilogram, read-out: WRITHING ASSAY Number Out of Nine or Ten (mice in which test compound produced analgesia) (converted); for responders at 10 mg/kg: 10 mg per kilogram, read-out: WRITHING ASSAY Number Out of Nine or Ten (mice in which test compound produced analgesia)
# Description: The Writhing Assay is one of the most widely-used experimental procedures for measuring the analgesic activity of different narcotic and nonnarcotic analgesic agents, and involves the continuous, chemically-induced pain of visceral origin to an animal, such as a mouse or rat. Gyires et al., Arch. int. […] Vander Wende et al., Fed. […] Chemicals which may be used to induce this pain include phenylbenzoquinone (PBQ) and acetic acid. As a result of the chemical irritation to the animal, a characteristic stretching and writhing of the animal (dorsiflexion of the animal's back, extension of its hindlimbs and the strong contraction of its abdominal musculature) will generally occur. […] Drugs which reduce the number of writhes of the animal appear to restore the normal nociceptive threshold of the animal.
# Charles River male albino mice, weighing 20 to 30 grams were used in this assay.
# Ten mice which were given saline in place of a test compound of the invention were used as a control group.
# Five minutes later, each mouse was individually placed into a glass beaker for observation, and the number of writhes occurring during the following ten-minute period was counted.
# [3] = tested on: isolated smooth muscle preparations; conditions: cited from earlier work
Structure (SMILES),PGE ANTAGONISM IN GUINEA PIG ILEUM Dose Ratio (DR) [1],responders at 30 mg/kg [2] [%],responders at 10 mg/kg [2] [%],inhibition of the stimulant actions of prostaglandins on isolated smooth muscle preparations [3]
"O=S(=O)(c1ccc(CCc2ccncc2)cc1)N1Cc2ccccc2Oc2ccc(Cl)cc21 [Example 3, 8-chloro-10,11-dihydro-10-4-2-(4-pyridinyl)ethyl!phenyl!sulfonyl!dibenzb,f! 1,4!oxazepine, monohydrochloride]",1.0,50,–,–
"O=C(NCc1ccncc1)c1ccc(S(=O)(=O)N2Cc3ccccc3Oc3ccc(Cl)cc32)cc1 [Example 4, 4-(8-chlorodibenzb,f! 1,4!oxazepin-10(11H)yl)sulfonyl!-N-(4-pyridinylmethyl)benzamide, monohydrochloride]",–,60,–,–
"O=C(NCc1cccnc1)c1ccc(S(=O)(=O)N2Cc3ccccc3Oc3ccc(Cl)cc32)cc1 [Example 5, 4-(8-chlorodibenzb,f! 1,4!oxazepin-10(11H)yl) sulfonyl!-N-(3-pyridinylmethyl)benzamide, monohydrochloride]",4.4,30,–,–
"O=C(c1ccc(/C=C\c2ccncc2)cc1)N1Cc2ccccc2Oc2ccc(Cl)cc21 [Example 8, Compound E, 8-chloro-10,11-dihydro-10-4-2Z-(4-pyridinyl)ethenyl!benzoyl!dibenz b,f! 1 ,4!oxazepine, hydrochloride]",4.8,–,90,–
"O=C(c1ccc(CCc2ccncc2)cc1)N1Cc2ccccc2Oc2ccc(Cl)cc21 [Example 8, Compound F, 8-chloro-10,11-dihydro-10-4-2-(4-pyridinyl)ethyl!benzoyl!dibenz b,f! 1,4! oxazepine, hydrochloride]",1.1,–,90,–
"O=C(NCc1ccncc1)c1ccc(C(=O)N2Cc3ccccc3Oc3ccc(Cl)cc32)cc1 [Example 9, 4-(8-chlorodibenzb,f! 1,4!oxazepin-10(11H)-yl)carbonyl!-N-(4-pyridinylmethyl)benzamide, hydrochloride]",2.29,–,80,–
"O=C(NCc1cccnc1)c1ccc(C(=O)N2Cc3ccccc3Oc3ccc(Cl)cc32)cc1 [Example 10, 4-(8-chlorodibenzb,f! 1,4!oxazepin-10(11H)yl)carbonyl!-N-f3,pyridinylmethyl)benzamide, hydrochloride]",3.2,40,–,–
"O=C(NCc1ccncc1)c1ccccc1C(=O)N1Cc2ccccc2Oc2ccc(Cl)cc21 [Example 12, 2-(8-chlorodibenzb,f! 1,4!oxazepin-10(11H)yl)carbonyl!-N-(4-pyridinylmethyl)benzamide, hydrochloride]",4.23,33.3,–,–
"O=C(NCc1cccnc1)c1ccccc1C(=O)N1Cc2ccccc2Oc2ccc(Cl)cc21 [Example 13, 2-(8-chlorodibenzb,f! 1,4!oxazepin-10 f 11H)yl)carbonyl!-N-(3-pyridinylmethyl)benzamide, hydrochloride]",1.10,50,–,–
"O=C(NCc1ccccn1)c1ccccc1C(=O)N1Cc2ccccc2Oc2ccc(Cl)cc21 [Example 14, 2-(8-chlorodibenzb,f! 1,4!oxazepin-10(11H)-yl) carbonyl!-N-(2-pyridinylmethyl!benzamide, dihydrochloride]",4.07,30,–,–
"O=C(NCc1ccncc1)c1cccc(C(=O)N2Cc3ccccc3Oc3ccc(Cl)cc32)c1 [Example 16, 3-f 8-chlorodibenz b,f! 1,4!oxazepin-10(11H)yl)carbonyl!-N-(4-pyridinylmethyl)benzamide, monohydrochloride]",4.67,80,–,–
"O=C(NCc1cccnc1)c1cccc(C(=O)N2Cc3ccccc3Oc3ccc(Cl)cc32)c1 [Example 17, 3-(8-chlorodibenzb,f! 1,4!oxazepin-10(11H!yl!carbonyl!-N-(3-pyridinylmethyl)benzamide, monohydrochloride]",66.0,50,–,–
"O=C(NCc1ccccn1)c1cccc(C(=O)N2Cc3ccccc3Oc3ccc(Cl)cc32)c1 [Example 18, 3-(8-chlorodibenzb,f! 1,4!oxazepin-10(11H)yl)carbonyl!-N-(2-pyridinylmethyl!benzamide, hydrochloride]",114,70,–,–
"O=C(NCc1ccncc1)c1ccc(CN2Cc3ccccc3Oc3ccc(Cl)cc32)cc1 [Example 27, 4-(8-chlorodibenzb,f! 1,4!oxazepin-10(11H)yl)methyl!-N-(4-pyridinylmethyl)benzamide, hydrochloride]",22.7,50,–,–
"O=C(NCc1cccnc1)c1ccc(CN2Cc3ccccc3Oc3ccc(Cl)cc32)cc1 [Example 28, 4-(8-chlorodibenzb,f! 1,4!oxazepin-10(11H)yl)methyl!-N-(3-pyridinylmethyl)benzamide, hydrochloride]",3.59,60,–,–
"O=C(NCc1ccccn1)c1ccc(CN2Cc3ccccc3Oc3ccc(Cl)cc32)cc1 [Example 29, 4-(8-chlorodibenz E b,f! 1,4!oxazepin-10(11H)yl)methyl!-N-(2-pyridinylmethyl)benzamide, hydrochloride]",10.4,50,–,–
"O=C(NCc1ccncc1)c1cccc(C(=O)N2Cc3ccccc3Oc3ccc(Cl)cc32)n1 [Example 30, 6-(8-chlorodibenzb,f! 1,4!oxazepin-10(11H)yl)carbonyl!-N-(4-pyridinylmethyl)-2-pyridinecarboxamide, hydrochloride]",0.81,70,–,–
"O=C(NCc1cccnc1)c1cccc(C(=O)N2Cc3ccccc3Oc3ccc(Cl)cc32)n1 [Example 31, 6-(8-chlorodibenzb,f! 1,4!oxazepin-10(11H)yl)carbonyl!-N-(3-pyridinylmethyl)-2-pyridinecarboxamide, hydrochloride]",1.70,60,–,–
"O=C(NCc1ccccn1)c1cccc(C(=O)N2Cc3ccccc3Oc3ccc(Cl)cc32)n1 [Example 32, 6-(8-chlorodibenzb,f! 1,4!oxazepin-10(11H)yl)carbonyl!-N,(2-pyridinylmethyl)-2-pyridinecarboxamide, hydrochloride]",0.63,30,–,–
"O=C(NCc1ccncc1)c1ccc(CN2Cc3ccccc3Oc3ccc(Cl)cc32)cn1 [Example 34, 5-(8-chlorodibenzb,f! 1,4!oxazepin-10(11H)yl)methyl!-N-(4-pyridinylmethyl)-2-pyridinecarboxamide, monohydrochloride]",1.16,20,–,–
"O=C(NCc1cccnc1)c1ccc(CN2Cc3ccccc3Oc3ccc(Cl)cc32)cn1 [Example 35, 5-(8-chlorodibenzb,f! 1,4!oxazepin-10(11H)yl)methyl!-N-(3-pyridinylmethyl)-2-pyridinecarboxamide, monohydrochloride]",–,70,–,–
"O=C(NCc1ccccn1)c1ccc(CN2Cc3ccccc3Oc3ccc(Cl)cc32)cn1 [Example 36, 5-(8-chlorodibenzb,f! 1,4!oxazepin-10(11H)yl)methyl!-N-(2-pyridinylmethyl!-2-pyridinecarboxamide, monohydrochloride]",2.6,77.8,–,–
O=C(Cc1ccccc1)NNC(=O)N1Cc2ccccc2Oc2ccc(Cl)cc21 [SC-18637],–,–,–,inhibit the stimulant actions of prostaglandins
CC(=O)NNC(=O)N1Cc2ccccc2Oc2ccc(Cl)cc21 [SC-19220],–,–,–,inhibit the stimulant actions of prostaglandins
